For one experiment, the target named is T1, human V1a receptor (Homo sapiens, UniProt P37288).
T1 construct: expressed in transfected cells; host or cells: CHO K1 (ATCC), also stably transfected with modified aequorin
In words: Cellular in vitro assay for determining vasopressin receptor activity, V1a receptor cell line (photoprotein luminescence). The note with it: CHO cell line transfected with human V1a receptor; [Arg8]-vasopressin at EC50; compounds of the invention (Table 1A); read-out: IC50 hV1a. It is filed as cell-based. The method, then: (§1) The identification of agonists and antagonists of the V1a and V2 vasopressin receptors from humans, rats and dogs as well as the quantification of the activity of the compounds of the invention is carried out using recombinant cell lines. These cell lines originally derive from a hamster's ovary epithelial cell (Chinese Hamster Ovary, CHO K1, ATCC: American Type Culture Collection, Manassas, Va. 20108, USA). The test cell lines constitutively express the human, rat or dog V1a or V2 receptors. In case of the […] V1a receptors, cells are also stably transfected with a modified form of the calcium-sensitive photoproteins aequorin (human and rat V1a) or obelin (dog V1a), which, after reconstitution with the cofactor coelenterazine, emit light when there are increases in free calcium concentrations [Rizzuto R, Simpson A W, Brini M, Pozzan T, Nature 358, 325-327 (1992); Illarionov B A, Bondar V S, Illarionova V A, Vysotski E S, Gene 153 (2), 273-274 (1995)]. The resulting vasopressin receptor cells react to stimulation of the recombinantly expressed V1a receptors by intracellular release of calcium ions, which can be quantified by the resulting photoprotein luminescence. The Gs-coupled V2 receptors are stably transfected into cell lines expressing the gene for firefly luciferase under control of a CRE-responsible promoter. Activation of V2 receptors induces the activation of the CRE-responsive promoter via cAMP increase, thereby inducing the expression of firefly luciferase. The light emitted by photoproteins of V1a cell lines as well as the light emitted by firefly luciferase of V2 cell lines corresponds to the activation or inhibition of the respective vasopressin receptor. The bioluminescence of the cell lines is detected using a suitable luminometer [Milligan G, Marshall F, Rees S, Trends in Pharmacological Sciences 17, 235-237 (1996)].
On the day before the assay, the cells are plated out in culture medium (DMEM/F12, 2% FCS, 2 mM glutamine, 10 mM HEPES, 5 μg/ml coelenterazine) in 384-well microtiter plates and kept in a cell incubator (96% humidity, 5% v/v CO2, 37° C.). On the day of the assay, test compounds in various concentrations are placed for 10 minutes in the wells of the microtiter plate before the agonist [Arg^8]-vasopressin at EC50 concentration is added. The resulting light signal is measured immediately in the luminometer.
(§2) Table 1A below lists individual IC50 values for the compounds of the invention (including diastereomeric mixtures as well as separated, enantiopure diastereomers) that were obtained from cell lines transfected with the human V1a or V2 receptor: […]

The target of another experiment is T2, human V2 receptor (Homo sapiens, UniProt P30518).
T2 construct: expressed in transfected cells; host or cells: CHO K1 (ATCC) expressing firefly luciferase under a CRE-responsive promoter
In words: Cellular in vitro assay for determining vasopressin receptor activity, V2 receptor cell line (CRE-luciferase). The following applies: CHO cell line transfected with human V2 receptor; [Arg8]-vasopressin at EC50; compounds of the invention (Table 1A); read-out: IC50 hV2. It is filed as cell-based. The method, then: as §1
On the day before the assay, the cells are plated out in culture medium (DMEM/F12, 2% FCS, 2 mM glutamine, 10 mM HEPES) in 384-well microtiter plates and kept in a cell incubator (96% humidity, 5% v/v CO2, 37° C.). […] Upon addition of the cell lysis reagent Triton and the substrate luciferin, luminescence of firefly luciferase is measured in a luminometer.
as §2

The term IC50 denotes the concentration that inhibits the measured activity by half.

The structures appear in SMILES notation.

T2 sequence (P30518 whole entry): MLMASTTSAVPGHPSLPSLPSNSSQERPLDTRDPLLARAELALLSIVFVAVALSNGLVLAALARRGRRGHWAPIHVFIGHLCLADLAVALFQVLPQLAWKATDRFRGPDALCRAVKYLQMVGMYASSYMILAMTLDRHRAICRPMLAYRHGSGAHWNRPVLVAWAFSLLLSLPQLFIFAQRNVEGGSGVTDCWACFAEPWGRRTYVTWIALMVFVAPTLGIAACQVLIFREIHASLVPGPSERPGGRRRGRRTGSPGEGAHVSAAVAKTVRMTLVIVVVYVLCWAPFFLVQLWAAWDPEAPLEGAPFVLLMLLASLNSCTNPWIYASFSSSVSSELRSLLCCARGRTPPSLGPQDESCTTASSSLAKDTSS
T1 sequence (P37288 whole entry): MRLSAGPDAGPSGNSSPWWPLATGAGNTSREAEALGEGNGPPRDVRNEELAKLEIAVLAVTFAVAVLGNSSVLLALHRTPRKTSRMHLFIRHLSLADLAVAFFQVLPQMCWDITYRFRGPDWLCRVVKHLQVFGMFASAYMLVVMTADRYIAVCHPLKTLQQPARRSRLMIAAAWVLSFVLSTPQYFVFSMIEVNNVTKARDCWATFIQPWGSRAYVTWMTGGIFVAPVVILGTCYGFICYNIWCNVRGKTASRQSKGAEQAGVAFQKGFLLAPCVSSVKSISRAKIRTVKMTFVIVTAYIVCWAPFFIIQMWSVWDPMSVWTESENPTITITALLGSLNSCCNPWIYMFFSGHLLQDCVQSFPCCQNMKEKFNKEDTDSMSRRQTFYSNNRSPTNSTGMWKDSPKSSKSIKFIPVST

As to `COc1ccccc1-n1nc(Cn2nc(-c3ccc(Cl)cc3)n(C[C@H](O)C(F)(F)F)c2=O)nc1C(C)O` (mixture of isomers) [Example 10, 5-(4-Chlorophenyl)-2-({5-[(1RS)-1-hydroxyethyl]-1-(2-methoxyphenyl)-1H-1,2,4-triazol-3-yl}-methyl)-4-[(2S)-3,3,3-trifluoro-2-hydroxypropyl]-2,4-dihydro-3H-1,2,4-triazol-3-one], the IC50 on human V1a receptor and on human V2 receptor was 1.4 nM in each case.
Regarding `CC(O)c1nc(Cn2nc(-c3ccc(Cl)cc3)n(C[C@H](O)C(F)(F)F)c2=O)nn1-c1cc(F)cc(Cl)c1` (mixture of isomers) [Example 13, 2-({1-(3-Chloro-5-fluorophenyl)-5-[(1RS)-1-hydroxyethyl]-1H-1,2,4-triazol-3-yl}methyl)-5-(4-chlorophenyl)-4-[(2S)-3,3,3-trifluoro-2-hydroxypropyl]-2,4-dihydro-3H-1,2,4-triazol-3-one], the IC50 at human V1a receptor was determined as 6.2 nM; at human V2 receptor, 1.4 nM.
Take `CC(O)c1nc(Cn2nc(-c3ccc(Cl)cc3)n(C[C@H](O)C(F)(F)F)c2=O)nn1-c1ccccc1` (mixture of isomers) [Example 16, 5-(4-Chlorophenyl)-2-({5-[(1RS)-1-hydroxyethyl]-1-phenyl-1H-1,2,4-triazol-3-yl}methyl)-4-[(2S)-3,3,3-trifluoro-2-hydroxypropyl]-2,4-dihydro-3H-1,2,4-triazol-3-one]: the figures for the IC50 on human V1a receptor and at human V2 receptor were 3.1 nM and 6 nM, respectively.
For `CC(O)c1nc(Cn2nc(-c3ccc(Cl)cc3)n(C[C@H](O)C(F)(F)F)c2=O)nn1-c1cccc(C(F)F)c1` (mixture of isomers) [Example 19, 5-(4-Chlorophenyl)-2-({1-[3-(difluoromethyl)phenyl]-5-[(1RS)-1-hydroxyethyl]-1H-1,2,4-triazol-3-yl}methyl)-4-[(2S)-3,3,3-trifluoro-2-hydroxypropyl]-2,4-dihydro-3H-1,2,4-triazol-3-one] the same measures were 12.4 nM and 1.4 nM.
On to `CC(O)c1nc(Cn2nc(-c3ccc(Cl)cc3)n(C[C@H](O)C(F)(F)F)c2=O)nn1-c1cccc(C(F)(F)F)c1` (mixture of isomers) [Example 22, 5-(4-Chlorophenyl)-2-({5-[(1RS)-1-hydroxyethyl]-1-[3-(trifluoromethyl)phenyl]-1H-1,2,4-triazol-3-yl}methyl)-4-[(2S)-3,3,3-trifluoro-2-hydroxypropyl]-2,4-dihydro-3H-1,2,4-triazol-3-one], for which the IC50 on human V1a receptor worked out at 24.4 nM; at human V2 receptor, 2.3 nM.
`CC(O)c1nc(Cn2nc(-c3ccc(Cl)cc3)n(C[C@H](O)C(F)(F)F)c2=O)nn1-c1cc(F)cc(F)c1` (mixture of isomers) [Example 25, 5-(4-Chlorophenyl)-2-({1-(3,5-difluorophenyl)-5-[(1RS)-1-hydroxyethyl]-1H-1,2,4-triazol-3-yl}-methyl)-4-[(2S)-3,3,3-trifluoro-2-hydroxypropyl]-2,4-dihydro-3H-1,2,4-triazol-3-one]: the IC50 at human V1a receptor came to 7.2 nM; on human V2 receptor it was 3.6 nM.
As for `Cc1cccc(-n2nc(Cn3nc(-c4ccc(Cl)cc4)n(C[C@H](O)C(F)(F)F)c3=O)nc2C(C)O)c1` (mixture of isomers) [Example 28, 5-(4-Chlorophenyl)-2-({5-[(1RS)-1-hydroxyethyl]-1-(3-methylphenyl)-1H-1,2,4-triazol-3-yl}-methyl)-4-[(2S)-3,3,3-trifluoro-2-hydroxypropyl]-2,4-dihydro-3H-1,2,4-triazol-3-one], the IC50 on human V1a receptor came out at 1.3 nM; on human V2 receptor, 0.2 nM.
For the molecule `CCc1ccccc1-n1nc(Cn2nc(-c3ccc(Cl)cc3)n(C[C@H](O)C(F)(F)F)c2=O)nc1C(C)O` (mixture of isomers) [Example 31, 5-(4-Chlorophenyl)-2-({1-(2-ethylphenyl)-5-[(1RS)-1-hydroxyethyl]-1H-1,2,4-triazol-3-yl}-methyl)-4-[(2S)-3,3,3-trifluoro-2-hydroxypropyl]-2,4-dihydro-3H-1,2,4-triazol-3-one], the IC50 turned out to be 1.6 nM at human V1a receptor and 0.9 nM at human V2 receptor.
In the case of `CC(O)c1nc(Cn2nc(-c3ccc(Cl)cc3)n(C[C@H](O)C(F)(F)F)c2=O)nn1-c1ccc(F)cc1Cl` (mixture of isomers) [Example 34, 2-({1-(2-Chloro-4-fluorophenyl)-5-[(1RS)-1-hydroxyethyl]-1H-1,2,4-triazol-3-yl}methyl)-5-(4-chlorophenyl)-4-[(2S)-3,3,3-trifluoro-2-hydroxypropyl]-2,4-dihydro-3H-1,2,4-triazol-3-one], the results for the IC50 on human V1a receptor and at human V2 receptor were 0.4 nM and 1.2 nM, respectively.
In the case of `COc1ccc(F)cc1-n1nc(Cn2nc(-c3ccc(Cl)cc3)n(C[C@H](O)C(F)(F)F)c2=O)nc1C(C)O` (mixture of isomers) [Example 37, 5-(4-Chlorophenyl)-2-({1-(5-fluoro-2-methoxyphenyl)-5-[(1RS)-1-hydroxyethyl]-1H-1,2,4-triazol-3-yl}methyl)-4-[(2S)-3,3,3-trifluoro-2-hydroxypropyl]-2,4-dihydro-3H-1,2,4-triazol-3-one], the results for the IC50 on human V1a receptor and on human V2 receptor were 0.5 nM and 0.7 nM, respectively.
As for `CC(O)c1nc(Cn2nc(-c3ccc(Cl)cc3)n(C[C@H](O)C(F)(F)F)c2=O)nn1-c1ccccc1F` (mixture of isomers) [Example 40, 5-(4-Chlorophenyl)-2-({1-(2-fluorophenyl)-5-[(1RS)-1-hydroxyethyl]-1H-1,2,4-triazol-3-yl}-methyl)-4-[(2S)-3,3,3-trifluoro-2-hydroxypropyl]-2,4-dihydro-3H-1,2,4-triazol-3-one], the IC50 on human V1a receptor is 1.5 nM; at human V2 receptor, 7.2 nM.
In the same order, the values of `CC(O)c1nc(Cn2nc(-c3ccc(Cl)cc3)n(C[C@H](O)C(F)(F)F)c2=O)nn1-c1ccc(F)c(Cl)c1` (mixture of isomers) [Example 43, 2-({1-(3-Chloro-4-fluorophenyl)-5-[(1RS)-1-hydroxyethyl]-1H-1,2,4-triazol-3-yl}methyl)-5-(4-chlorophenyl)-4-[(2S)-3,3,3-trifluoro-2-hydroxypropyl]-2,4-dihydro-3H-1,2,4-triazol-3-one] are 6.2 nM and 1.2 nM.
For `CC(O)c1nc(Cn2nc(-c3ccc(Cl)cc3)n(C[C@H](O)C(F)(F)F)c2=O)nn1-c1cc(Cl)cc(Cl)c1` (mixture of isomers) [Example 46, 5-(4-Chlorophenyl)-2-({1-(3,5-dichlorophenyl)-5-[(1RS)-1-hydroxyethyl]-1H-1,2,4-triazol-3-yl}-methyl)-4-[(2S)-3,3,3-trifluoro-2-hydroxypropyl]-2,4-dihydro-3H-1,2,4-triazol-3-one] the same measures were 6.3 nM and 2.1 nM.
For `CC(O)c1nc(Cn2nc(-c3ccc(Cl)cc3)n(C[C@H](O)C(F)(F)F)c2=O)nn1-c1cc(Cl)ccc1Cl` (mixture of isomers) [Example 49, 5-(4-Chlorophenyl)-2-({1-(2,5-dichlorophenyl)-5-[(1RS)-1-hydroxyethyl]-1H-1,2,4-triazol-3-yl}-methyl)-4-[(2S)-3,3,3-trifluoro-2-hydroxypropyl]-2,4-dihydro-3H-1,2,4-triazol-3-one] the same measures were 1.8 nM and 12.6 nM.
Regarding `CC(O)c1nc(Cn2nc(-c3ccc(Cl)cc3)n(C[C@H](O)C(F)(F)F)c2=O)nn1-c1cccc(Cl)c1F` (mixture of isomers) [Example 52, 2-({1-(3-Chloro-2-fluorophenyl)-5-[(1RS)-1-hydroxyethyl]-1H-1,2,4-triazol-3-yl}methyl)-5-(4-chlorophenyl)-4-[(2S)-3,3,3-trifluoro-2-hydroxypropyl]-2,4-dihydro-3H-1,2,4-triazol-3-one], the 50% inhibitory concentration (IC50) stood at 3.9 nM at human V1a receptor and 0.4 nM at human V2 receptor.
Turning to `CC(O)c1nc(Cn2nc(-c3ccc(Cl)cc3)n(C[C@H](O)C(F)(F)F)c2=O)nn1-c1cc(F)ccc1Cl` (single isomer, unassigned) [Example 59], on human V2 receptor, the IC50 amounted to 2.4 nM.
Same read-out and setting: in the case of `CC(O)c1nc(Cn2nc(-c3ccc(Cl)cc3)n(C[C@H](O)C(F)(F)F)c2=O)nn1-c1cc(F)ccc1Cl` (single isomer, unassigned) [Example 60] it was 5.2 nM.

Values taken from patent US9771352B2, “Hydroxyalkyl-substituted phenyltriazole derivatives and uses thereof” (BAYER PHARMA AKTIENGESELLSCHAFT, priority 2014, dated 2017).
